For one test, the system named is ApoE2/E2 mice. The test is described as follows: Plasma lipids in dyslipidemic ApoE2/E2 mice after per os treatment. Particulars: 50 mpk per os, 8 days. It counts as in vivo, mouse. As to the method: The dyslipidemic E2/E2 mouse's rates of total cholesterol, of triglycerides, and plasma free fatty acids are measured after 8 or 14 days of a per os treatment with the compounds according to the invention.
The hypolipidemic properties of the compounds according to the invention are evaluated in vivo by assaying plasma lipids and the analysis of the PPARs target genes expression in the liver after a treatment treating of the dyslipidemic E2/E2 mice with the compounds according to the invention.
The murine model used is the ApoE2/E2 mouse, a transgenic mouse having the human apolipoprotein E isoform E2 (Sullivan P M et al., 1998). In human, this apolipoprotein, a constituent of low and very low density lipoproteins (LDL-VLDL), is present in three isoforms E2, E3, and E4. The E2 form presents a mutation affecting the amino acid in position 158, which considerably weakens the affinity of this protein for LDL receptors. Accordingly, the VLDL clearance is nearly non-existent. An accumulation of low-density lipoproteins then occurs along with a mixed hyperlipidemia known as type III (elevated cholesterol and triglycerides).
The ApoE2/E2 transgenic mice were kept on a 12 hour/12 hour light/dark cycle at a constant temperature of 20±3° C. After a one week acclimatization period, the mice were weighed and divided into groups of 6 animals selected so as to render uniform the distribution of their body weights and plasma lipid rates, determined before the experiment. The tested compounds were suspended in carboxymethylcellulose (Sigma C4888) and administered by intra-gastric tube feeding once a day for 8 days (for compound 1) or 14 days (for compound 8) with the chosen doses. […] Taking of food and weight gain are recorded throughout the experiment. […]
Plasma lipid concentrations (total cholesterol and triglycerides) are measured by enzymatic doses (bioMérieux-Lyon-France) according to the provider's recommendations.
Plasma cholesterol and triglycerides rates are measured after 8 or 14 days of a per os treatment with the compounds according to the invention. […]

The test system of test [1] is PPARs target genes (PDK4, ApoCIII, ACO) in the hepatic tissue. The test is described as follows: Hepatic expression of PPAR target genes in E2/E2 mice (quantitative RT-PCR). It counts as in vivo, mouse. The settings on record: 50 mpk. As to the method:
The effectiveness of the compounds according to the invention is also evaluated by measuring, in the hepatic tissue, the expression of genes involved in lipid and/or glucids metabolism and in energy dissipation. Each level of genes expression is normalised regarding the expression level of the reference gene 36B4's. The induction factor, i.e. the ratio between the relative signal (induced by the compound according to the invention) and the average of the relative values relating to the control group is then calculated. The higher the induction factor is, the more the compound promotes hepatic gene expression. The final result is expressed as an average of the induction values obtained with each experimental group.
The PPARα agonist properties previously measured in vitro should, in the liver, lead to an overexpression of the target genes directly under the control of the PPARα: the genes we have studied in this experiment are PDK-4 (an enzyme involved in glucid metabolism), Apo CIII (an apolipoprotein involved in lipid metabolism), and Acox1 (in mice, Acox1 corresponds to the ACO gene in humans (Acyl Co-enzymeA Oxydase, an enzyme key to the fatty acid β-oxidation mechanism)). Measuring the transcriptional activity of PPARα target genes after a treatment with compounds according to the invention does therefore allow to evaluate the hypolipidemic properties of the compounds according to the invention.
The ApoE2/E2 transgenic mice were kept on a 12 hour/12 hour light/dark cycle at a constant temperature of 20±3° C. After a one week acclimatization period, the mice were weighed and divided into groups of 6 animals selected so as to render uniform the distribution of their body weights and plasma lipid rates, determined before the experiment. The tested compounds were suspended in carboxymethylcellulose (Sigma C4888) and administered by intra-gastric tube feeding once a day for 8 days (for compound 1) or 14 days (for compound 8) with the chosen doses. The animals had free access to food and water (standard diet). Taking of food and weight gain are recorded throughout the experiment. At the end of the experiment, the animals were anesthetized after a 4 hour fast, and a blood sample was taken using (EDTA) anticoagulant, then the mice were weighed and euthanized. The plasma was separated by centrifugation at 3000 rotations/minute for 20 minutes. The samples were kept at +4° C.
Liver samples were removed, frozen in liquid nitrogen, and kept at −80° C. for later analyses.
Total RNA is extracted from liver fragments by using the NucleoSpin® 96 RNA kit (Macherey Nagel, Hoerdt, France) according to the manufacturer's instructions.
1 μg of total RNA (quantified by using the Ribogreen RNA quantification kit (Molecular Probes)) is then reverse-transcripted into complementary DNA by means of a 1 hour reaction at 37° C. in a total volume of 20 μl containing a 1× buffer (Sigma), 1.5 mM of DTT, 0.18 mM of dNTPs (Promega), 200 ng of pdN6 (Amersham), 30U of RNase inhibitor (Sigma), and 1 μl of MMLV-RT (Sigma).
The PCR quantitative experiments were carried out using the MyiQ Single-Color Real-Time PCR Detection System (Biorad, Marnes-la-Coquette, France) and were performed using the iQ SYBR Green Supermix kit according to the manufacturer's recommendations, in 96-well trays in 5 μl of a diluted reverse transcription solution at a hybridation temperature of 55° C. The specific primer pairs of the genes studied were used: • PDK4: sense primer: 5′-[…]-3′ (SEQ ID NO: 1) and antisense primer 5′-[…]-3′ (SEQ ID NO: 2)) • ApoCIII: sense primer: 5′-[…]-3′ (SEQ ID NO: 3) and antisense primer 5′-[…]-3′ (SEQ ID NO: 4). • ACO: sense primer: 5′-[…]-3′ (SEQ ID NO: 5) and antisense primer: 5′-[…]-3′ (SEQ ID NO: 6)
The quantity of fluorescencet emitted is directly proportional to the quantity of cDNA present at the beginning of the reaction and amplified during the PCR. […]

Here are results for one compound from US8258182B2, “Substituted 1,3-diphenylpropane derivatives, preparations and uses thereof” (Genfit, priority 2006, dated 2012).

Turning to `CSc1ccc(C(=O)CCc2cc(C)c(OC(C)(C)C(=O)O)c(C)c2)cc1` [Compound 1, 2-[2,6-dimethyl-4-[3-[4-(methylthio)phenyl]-3-oxo-propyl]phenoxyl]-2-methylpropanoic acid], the “plasma total cholesterol rates” value with ApoE2/E2 mice (vs control animals (FIG. 2-1)) was “very significantly decreased”. Besides, the circulating triglycerides rates entry in the test on ApoE2/E2 mice (vs control animals (FIG. 2-2)) is given as “very significantly decreased”. For the same compound, in test [1] (8 days (FIG. 2-4)), the “hepatic expression of the gene coding for PDK4” value was “significant increase”. In addition, the “hepatic expression of the gene coding for ApoCIII” value in test [1] (8 days (FIG. 2-5)) is “reduction”. In addition, in test [1] (8 days (FIG. 2-6)), the “hepatic expression of genes coding for ACO” value is “significant augmentation”.
